Test results as given in patent publication US11662342B2, “Barrier function measurements” (MIMETAS B.V., priority 2015, dated 2023).
Blank lines part the entries; values can stand above or below the molecule they belong to.

How the values were obtained:
[1] = system: Caco-2 tubules; assay: Loss of barrier function of gut tubule (Caco-2) exposed to aspirin (TRITC-dextran 150 kDa); type: cell-based, human; conditions: for loss of barrier integrity: imaged every hour for 24 hours
Text: FIG. 11 depicts the loss of barrier function of a gut tubule exposed to aspirin. […] However, the lack of data on concentrations with a maximum response hinders accurate EC50 estimation.

[2] = system: LLC-PK1 tubules; assay: Barrier integrity assay, LLC-PK1 tubules with staurosporin exposure (FITC-dextran 150 kDa leakage); type: cell-based, pig; conditions: 0, 1, 5 or 10 μM in top perfusion channel, imaged every 15 min for 16 hours
Method: The integrity of a cellular barrier, cultivated for example as described in FIGS. 1 and 2, can be probed by replacing the medium in the perfusion channel by medium containing 500 μg/mL FITC-dextran 150 kDa (Sigma, 46946). A) If the cellular barrier is leak-tight the fluorescent signal will be contained in the perfusion channel, whereas in the microfluidic chip with no cells, just ECM in the gel channel, the fluorescent signal will enter the ECM and will saturate within minutes. The fluorescent signal in the perfusion and gel channel can be monitored real time using time-lapse fluorescent microscopy, as for example with the ImageXpress Micro (Molecular Devices). B) Fluorescent signal intensity of the FITC-dextran 150 kDa was quantified in the top perfusion channel and in the gel channel using FIJI analysis software (Schindelin, J.; Arganda-Carreras, I. & Frise, E. et al. (2012), “Fiji: an open-source platform for biological-image analysis”, Nature methods 9(7): 676-682, PMID 22743772). C) The intensity of the gel channel was divided by the intensity of the top perfusion channel and the ratio was plotted against the time after start of fluorescent reporter addition. Without a cellular barrier the ECM is saturated within minutes after dye addition whereas a ratio close to zero is maintained as long as the cellular barrier is intact. […]

[3] = system: Caco-2 tubules; assay: Time-to-leak barrier integrity assay, human gut tubule (Caco-2) exposed to staurosporin (TRITC-dextran 150 kDa); conditions: Caco-2 tubes; imaged every hour for 13 hours; normalized TRITC-dextran fluorescence
Method: The Caco-2 cell line (Sigma, human colon carcinoma cells) was seeded in a 400 μm 3 lane OrganoPlate® at 10E6 cells/mL, placed on side for cell-ECM attachment for 2 hours, and then placed on a modified rocker platform for continuous medium perfusion. Three days after seeding leak-tightness of the Caco-2 tubules was tested by replacing the medium in the top perfusion channel with medium containing 0.25 mg/mL TRITC dextran 150 kDa. […] Medium in the top medium channel was replaced with medium with TRITC-dextran and increasing concentrations of aspirin. Plate was placed in the ImageXpress Micro XLS under temperature and CO2 controlled conditions and imaged for fluorescent (TRITC) signal every hour for 13 hours. A dose response curve can be extracted at every time point from the time-lapse of the exposed Caco-2 tubes. GraphPad Prism 6 (GraphPad Software Inc., La Jolla, Calif.) was used to fit the dose response curve based on nonlinear regression of the logarithm of the compound concentration versus the normalized fluorescence assuming a top and bottom plateau at 0 and 100% fluorescence.

[4] = system: MDCK tubules; assay: Barrier integrity assay, MDCK tubules with staurosporin exposure (FITC-dextran 150 kDa leakage); type: cell-based, canine; conditions: 0, 1, 4, 7 or 10 μM in top perfusion channel, imaged every hour for 15 hours
Method: MDCK (canine) cell line was seeded at 10*10^6 cells/mL in the top perfusion channel of a 400 μm 3-lane OrganoPlate® against a collagen I ECM (Cultrex, Amsbio, 3447-020-01, 4 mg/mL). 60 μL of medium was added to the medium inlet and outlet of the top perfusion channel. Plate was incubated on its side for 3 hours to allow cells to settle on top of the ECM. Three hours after seeding 60 μL medium was added to the medium inlet and outlet of the bottom perfusion channel and plate was placed on a rocker platform for continuous medium perfusion (angle 7°, tilt every 8 min). […] Volumes were 40 μL inlet/30 μL outlet in top perfusion channel, 0 μL inlet/0 μL outlet in the middle ECM channel, 20 μL inlet/20 μL outlet standard culture medium in the bottom perfusion channel. […]
Fluorescent signal intensity of the FITC-dextran 150 kDa was quantified in the top perfusion channel and in the gel channel of FIG. 4 using FIJI analysis software (Schindelin, J.; Arganda-Carreras, I. & Frise, E. et al. (2012), “Fiji: an open-source platform for biological-image analysis”, Nature methods 9(7): 676-682, PMID 22743772). […] The time-to-leakage value (e.g. 2 hours after compound addition) will have to be determined based on validation experiments to ensure maximal in vivo relevance. […]

[5] = system: MDCK tubules; type: cell-based, canine
Text: The 3 lane OrganoPlate® offers the unique possibility to add a compound from only the apical or the basolateral side of the tubular structure. […] Actively transported compounds can have directionality in the trans-cellular transport, as is for example the situation in the renal proximal tubules, where moving compounds specifically from the apical side of the tube to the basolateral side, or the other way around, is part of the renal filtering function. This implies toxic compounds that are actively transported by the proximal tubule cells can have a different effect depending on the location of exposure. The anti-cancer drug cisplatin is taken up by cells by the OCT-2 transporter that is expressed on the basal side of the epithelial monolayer. MDCK cells were seeded in the top channel of a 200 μm 3 lane OrganoPlate® against a collagen I ECM at 10E6 cells/mL. Three days after seeding MDCK tubules were exposed to increasing concentrations of cisplatin from either the apical or basal side by replacing the medium either in the top medium channel, or in the bottom medium channel, with medium with cisplatin. At the start of the exposure the medium in the top channel was also supplied with a fluorescent leakage marker, FITC-dextran 150 kDa.

[6] = system: human proximal tubule cells (RPTEC); assay: Drug induced loss of barrier integrity of human kidney proximal tubule (RPTEC), Kaplan-Meier plot; type: cell-based; conditions: RPTEC tubules; increasing concentrations; imaged every hour for 60 hours; versus medium, vehicle control 1 and 2
Text: After eight days in culture >95% of the seeded tubules were shown leak-tight by addition of FITC-dextran 150 kDa to the medium in the luminal compartment. Medium in the tubes was replaced with medium containing increasing concentrations of the renal toxicant amphotecerin B and the fluorescent FITC-dextran. […] IC indicates an inhibitor cocktail of 3 efflux transporter inhibitors.

- loss of barrier integrity ([1]; 3.7 mM): loss of barrier integrity
- exposure time at which a 50% effect was observed ([1]; 12 mM): 20 h
- loss of barrier integrity ([1]; 12 mM (12.12 mM)): clear loss of barrier integrity
- exposure time at which a 50% effect was observed ([1]; 40 mM): 10 h
- loss of barrier integrity ([1]; 40 mM): clear loss of barrier integrity
Molecule: CC(=O)Oc1ccccc1C(=O)O [aspirin]

Molecule: CN[C@@H]1C[C@H]2O[C@@](C)([C@@H]1OC)n1c3ccccc3c3c4c(c5c6ccccc6n2c5c31)C(=O)NC4 [staurosporin]
- integrity of the LLC-PK1 barrier with increasing concentrations [2]: breaks at an earlier time point
- dose response curve of barrier leakage with increasing exposure times [3]: shift towards lower compound concentrations
- integrity of the MDCK barrier with increasing concentrations [4]: breaks at an earlier time point

Molecule: N.N.[Cl][Pt][Cl] [cisplatin]
- time-to-leak, tubes exposed from the basal side versus apical exposed tubes [5]: significantly earlier

Molecule: amphotecerin B
- survival of tube integrity, exposed versus unexposed tubes [6]: significant difference
